Measurements as given in ChEMBL document CHEMBL1201862, “PubChem BioAssay data set” (2004).
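Following 48 hours of exposure in 96-well plates, responses at five concentrations were used to interpolate endpoints linearly. GI50 is the concentration that inhibits growth by half.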 Calls of active or inactive are those of the source. No stated cut-off is given here; in the data, active = GI50 up to about 1.1 µM and inactive = higher.

Key:
Assay in all cases: NCI tumour cell line growth inhibition, 48 h
CCRF-CEM = test system: CCRF-CEM
HOP-92 = test system: HOP-92
EKVX = test system: EKVX
OVCAR-3 = test system: OVCAR-3
SNB-19 = test system: SNB-19
UACC-257 = test system: UACC-257
Hs-578T = test system: Hs-578T
U-251 = test system: U-251
KM-20L2 = test system: KM-20L2
DU-145 = test system: DU-145
SR = test system: SR
OVCAR-4 = test system: OVCAR-4
NCI-H226 = test system: NCI-H226
OVCAR-5 = test system: OVCAR-5
LOX IMVI = test system: LOX IMVI
HOP-62 = test system: HOP-62
SW-620 = test system: SW-620
COLO 205 = test system: COLO 205
SK-MEL-2 = test system: SK-MEL-2
MDA-MB-231 = test system: MDA-MB-231
SN12C = test system: SN12C
SK-MEL-28 = test system: SK-MEL-28
DMS-114 = test system: DMS-114
XF498 = test system: XF498
SF-295 = test system: SF-295
HT-29 = test system: HT-29
T47D = test system: T47D
UACC-62 = test system: UACC-62
MDA-MB-435 = test system: MDA-MB-435
ACHN = test system: ACHN
MCF7 = test system: MCF7
NCI-H522 = test system: NCI-H522
SF-268 = test system: SF-268
BT-549 = test system: BT-549
MDA-N = test system: MDA-N
SF-539 = test system: SF-539
M14 = test system: M14
HOP-18 = test system: HOP-18
OVCAR-8 = test system: OVCAR-8
TK-10 = test system: TK-10
SK-MEL-5 = test system: SK-MEL-5
786-0 = test system: 786-0
HL-60 = test system: HL-60
DMS-273 = test system: DMS-273
NCI-H460 = test system: NCI-H460
HCT-15 = test system: HCT-15
M19-MEL = test system: M19-MEL
SNB-75 = test system: SNB-75
KM12 = test system: KM12
MOLT-4 = test system: MOLT-4
RXF 393 = test system: RXF 393
Malme-3M = test system: Malme-3M
CAKI-1 = test system: CAKI-1
DLD-1 = test system: DLD-1
A549 = test system: A549
SK-OV-3 = test system: SK-OV-3
UO-31 = test system: UO-31
PC-3 = test system: PC-3
LXFL 529 = test system: LXFL 529
NCI-H23 = test system: NCI-H23
HCC 2998 = test system: HCC 2998
RPMI-8226 = test system: RPMI-8226
RXF 631 = test system: RXF 631
HCT-116 = test system: HCT-116
NCI/ADR-RES = test system: NCI/ADR-RES
K562 = test system: K562
IGROV-1 = test system: IGROV-1
A498 = test system: A498
SNB-78 = test system: SNB-78

Measured: GI50

COc1cc2c[n+](C)c3c4ccccc4ccc3c2cc1OC.COc1cc2cnc3c4ccccc4ccc3c2cc1OC
inactive: CCRF-CEM 6.47 µM | HOP-92 10.6 µM | EKVX 2.2 µM | OVCAR-3 4.13 µM | SNB-19 3.94 µM | UACC-257 20 µM | Hs-578T 2.31 µM | U-251 3.05 µM | KM-20L2 8.81 µM | DU-145 5.68 µM | SR 4.42 µM | OVCAR-4 21.7 µM | NCI-H226 13.1 µM | OVCAR-5 17.3 µM | LOX IMVI 11.5 µM | HOP-62 19.1 µM | SW-620 4.34 µM | COLO 205 2.86 µM | SK-MEL-2 9.82 µM | MDA-MB-231 2.79 µM | SN12C 2.84 µM | SK-MEL-28 5.5 µM | DMS-114 2.31 µM | XF498 5.69 µM | SF-295 19.6 µM | HT-29 7.59 µM | T47D 3.14 µM | UACC-62 6.68 µM | MDA-MB-435 2.87 µM | ACHN 73.1 µM | MCF7 1.79 µM | NCI-H522 1.22 µM | BT-549 6.85 µM | MDA-N 7.05 µM | SF-539 10 µM | M14 20.2 µM | HOP-18 23.3 µM | OVCAR-8 12.1 µM | TK-10 26.6 µM | SK-MEL-5 14.9 µM | 786-0 12.3 µM | HL-60 42.7 µM | DMS-273 2.88 µM | NCI-H460 11.6 µM | M19-MEL 3.85 µM | SNB-75 3.54 µM | MOLT-4 1.46 µM | RXF 393 21.2 µM | Malme-3M 3.21 µM | CAKI-1 58.6 µM | DLD-1 31.3 µM | A549 2.54 µM | SK-OV-3 9.29 µM | UO-31 66.1 µM | PC-3 2.84 µM | LXFL 529 2.21 µM | NCI-H23 12.2 µM | HCC 2998 8.47 µM | RPMI-8226 8.11 µM | RXF 631 23 µM | HCT-116 7.83 µM | NCI/ADR-RES 10 µM | K562 9.55 µM | IGROV-1 11.8 µM
active: SF-268 0.592 µM | KM12 0.859 µM
> 100 µM: HCT-15

COc1cc2[nH]c3c(c2cc1OC)CCN[C@@]31CC[C@@]2(CC3c4c(cc(OC)c(O)c42)CCN3C)C[C@@H]1OC (stereo partly specified)
30.3 µM: HCT-15
inactive: CCRF-CEM 27.2 µM | HOP-92 22.2 µM | EKVX 36.4 µM | OVCAR-3 53.2 µM | SNB-19 > 81.1 µM | UACC-257 17.8 µM | Hs-578T 19.7 µM | U-251 29.2 µM | KM-20L2 34 µM | DU-145 > 81.3 µM | SR 12.5 µM | OVCAR-4 29 µM | NCI-H226 46.5 µM | OVCAR-5 > 73.3 µM | LOX IMVI 18.8 µM | HOP-62 62.8 µM | SW-620 32.8 µM | COLO 205 16.6 µM | SK-MEL-2 17.8 µM | MDA-MB-231 28.1 µM | SN12C 71.9 µM | SK-MEL-28 17.9 µM | DMS-114 20.2 µM | XF498 17.1 µM | SF-295 21.2 µM | HT-29 26.2 µM | T47D 20.5 µM | UACC-62 22.9 µM | MDA-MB-435 18.6 µM | ACHN 46 µM | MCF7 > 68.2 µM | NCI-H522 29.2 µM | SF-268 47.1 µM | BT-549 25.2 µM | MDA-N 18.7 µM | SF-539 14.9 µM | M14 18 µM | HOP-18 > 38.7 µM | A498 32 µM | OVCAR-8 30.9 µM | TK-10 29.8 µM | SK-MEL-5 16.5 µM | 786-0 50.7 µM | HL-60 16.3 µM | DMS-273 41.2 µM | NCI-H460 39.4 µM | M19-MEL 19.4 µM | SNB-75 18.3 µM | KM12 42.6 µM | MOLT-4 23.4 µM | RXF 393 21 µM | Malme-3M 18.5 µM | CAKI-1 35.6 µM | DLD-1 53 µM | A549 63 µM | SK-OV-3 73.6 µM | UO-31 20.6 µM | PC-3 48.6 µM | LXFL 529 40.1 µM | NCI-H23 > 79.1 µM | HCC 2998 31.9 µM | RPMI-8226 25.2 µM | RXF 631 7.78 µM | HCT-116 28.6 µM | NCI/ADR-RES 48.8 µM | SNB-78 > 85.3 µM | K562 20.7 µM | IGROV-1 66.1 µM
